Experimental data: patent US20110190365A1, “Insecticidal 4-phenyl-1H-pyrazoles” (Bayer Crop Science AG, priority 2008, published 2011)

Assay: log P by HPLC on a reversed-phase column (C18), EEC Directive 79/831 Annex V.A8
Type: physicochemical
Conditions: HCOOH
Experimental: The stated log P values were determined in accordance with EEC Directive 79/831 Annex V.A8 by HPLC (High Performance Liquid Chromatography) using a reversed-phase column (C18).

| SMILES | log P (HCOOH) |
| --- | --- |
| Nc1c(-c2ccc(Cl)c(F)c2)c(C(F)(F)F)nn1-c1ccc(C(=O)NCc2ccccn2)cc1 [I-A-Q2-168] | I-A-Q2-168: log P (HCOOH): 2.61 |
| Nc1c(-c2ccc(Br)cc2)c(C(F)(F)F)nn1-c1ccc(C(=O)NC2CC2)cc1 [I-A-Q2-190] | I-A-Q2-190: log P (HCOOH): 3.15 |
| Cc1cc(-n2nc(C(F)(F)F)c(-c3cc(Cl)cc(Cl)c3)c2Cl)ccc1C(=O)NCc1ncccn1 [I-A-Q2-277] | I-A-Q2-277: log P (HCOOH): 4.56 |
| Cc1cc(-n2nc(C(F)(F)F)c(-c3cc(Cl)cc(Cl)c3)c2[S+](C)[O-])ccc1C(=O)NCC(F)(F)C(F)F (single isomer, unassigned) [I-A-Q2-283] | I-A-Q2-283: log P (HCOOH): 4.12 |
| Nc1c(-c2cc(Cl)cc(Cl)c2)c(C(F)(F)F)nn1-c1ccc(C(=O)NCc2ncccn2)cn1 [I-A-Q2-108] | I-A-Q2-108: log P (HCOOH): 3.80 |
| CCNC(=O)c1ccc(-n2nc(C(F)(F)F)c(-c3cc(Cl)cc(Cl)c3)c2N)cc1C [I-A-Q2-270] | I-A-Q2-270: log P (HCOOH): 3.84 |
| CS(=O)(=O)c1cc(-n2nc(C(F)(F)F)c(-c3cc(Cl)cc(Cl)c3)c2N)ccc1C(=O)NCc1ccccn1 [I-A-Q2-425] | I-A-Q2-425: log P (HCOOH): 2.99 |
| Cc1cc(-n2nc(C(F)(F)F)c(-c3cc(Cl)cc(Cl)c3)c2[S+](C)[O-])ccc1C(=O)NCc1ccccn1 (stereo not drawn) [I-A-Q2-063, 4-[4-(3,5-Dichlorophenyl)-5-methanesulphinyl-3-trifluoromethylpyrazol-1-yl]-2-methyl-N-pyridin-2-ylmethylbenzamide] | I-A-Q2-063: log P (HCOOH): 3.11 |
| Cc1cc(-n2nc(C(F)(F)F)c(-c3cc(Cl)cc(Cl)c3)c2N)ccc1C(=O)NC(C)c1ccncc1 (stereo not drawn) [I-A-Q2-234] | I-A-Q2-234: log P (HCOOH): 2.38 |
| CC(NC(=O)c1cnc(-n2nc(C(F)(F)F)c(-c3cc(Cl)cc(Cl)c3)c2N)nc1C(F)(F)F)c1ccccn1 (stereo not drawn) [I-A-Q2-021] | I-A-Q2-021: log P (HCOOH): 3.48 |
| Cc1cc(-n2nc(C(F)(F)C(F)(F)F)c(-c3cc(C(F)(F)F)cc(C(F)(F)F)c3)c2N)ccc1C(=O)NCC(F)(F)C(F)F [I-A-Q2-343] | I-A-Q2-343: log P (HCOOH): 4.57 |
| Cc1cc(-n2nc(C(F)(F)F)c(-c3cc(Cl)cc(Cl)c3)c2N)ccc1C(=O)NC(c1cccc(C(F)(F)F)c1)C(F)(F)F (stereo not drawn) [I-A-Q2-257] | I-A-Q2-257: log P (HCOOH): 5.22 |
| Cc1cc(-n2nc(C(F)(F)c3cccc(Br)c3)c(-c3cc(Cl)cc(C(F)(F)F)c3)c2N)ccc1C(=O)NCC(F)(F)C(F)F [I-A-Q2-285] | I-A-Q2-285: log P (HCOOH): 4.95 |
| C[S+]([O-])c1cc(-n2nc(C(F)(F)F)c(-c3cc(Cl)cc(Cl)c3)c2N)ccc1C(=O)NCc1ccccn1 (stereo not drawn) [I-A-Q2-424] | I-A-Q2-424: log P (HCOOH): 2.75 |
| Cc1cc(-n2nc(C(F)(F)F)c(-c3ccc(Br)cc3)c2N)ccc1C(=O)NCc1ccccn1 [I-A-Q2-346] | I-A-Q2-346: log P (HCOOH): 2.80 |
| CNC(=O)c1ccc(-n2nc(C(C)C)c(-c3ccc(Cl)cc3)c2N)cc1 [I-A-Q2-074] | I-A-Q2-074: log P (HCOOH): 2.76 |
| Cc1cc(-n2nc(C(F)(F)F)c(-c3ccc(F)c(Cl)c3)c2N)ccc1C(=O)NCC(F)(F)C(F)F [I-A-Q2-309] | I-A-Q2-309: log P (HCOOH): 3.65 |
| Nc1c(-c2cc(Cl)cc(Cl)c2)c(C(F)(F)F)nn1-c1ccc(C(=O)NCc2ccccn2)cn1 [I-A-Q2-105] | I-A-Q2-105: log P (HCOOH): 3.61 |
| Cc1cc(-n2nc(C(F)(F)F)c(-c3c(F)cc(F)cc3F)c2N)ccc1C(=O)NCc1ccccn1 [I-A-Q2-350] | I-A-Q2-350: log P (HCOOH): 2.34 |

| SMILES | log P (HCOOH) |
| --- | --- |
| Cc1cc(-n2nc(C(F)(F)F)c(-c3cc(Cl)cc(Cl)c3)c2N)ccc1C(=O)N(C)CC(F)(F)C(F)F [I-A-Q2-033] | I-A-Q2-033: log P (HCOOH): 4.51 |
| CC(NC(=O)c1ccc(-n2nc(C(F)(F)F)c(-c3cc(Cl)cc(C(F)(F)F)c3)c2N)cc1)C(F)(F)F (stereo not drawn) [I-A-Q2-095] | I-A-Q2-095: log P (HCOOH): 4.51 |
| Cc1cc(-n2nc(C)c(-c3ccc(F)cc3)c2N)ccc1C(=O)NCc1ccccn1 [I-A-Q2-367] | I-A-Q2-367: log P (HCOOH): 1.59 |
| Cc1cc(-n2nc(C(F)(F)F)c(-c3ccc(Cl)c(F)c3)c2N)ccc1C(=O)NCC(F)(F)C(F)F [I-A-Q2-310] | I-A-Q2-310: log P (HCOOH): 3.70 |
| CSCC(C)NC(=O)c1ccc(-n2nc(C(F)(F)F)c(-c3cc(Cl)cc(Cl)c3)c2N)cc1C (stereo not drawn) [I-A-Q2-279] | I-A-Q2-279: log P (HCOOH): 4.43 |
| Cc1cc(-n2nc(C(F)(F)F)c(-c3cc(Cl)cc(Cl)c3)c2N)ccc1C(=O)NC1CCCCC1 [I-A-Q2-222] | I-A-Q2-222: log P (HCOOH): 4.76 |
| Cc1cc(-n2nc(C(F)(F)F)c(-c3cccc(Br)c3)c2N)ccc1C(=O)NC(C)c1ccccn1 (stereo not drawn) [I-A-Q2-418] | I-A-Q2-418: log P (HCOOH): 3.22 |
| Cc1cc(-n2nc(C(F)(F)F)cc2N)ccc1C(=O)NCC(F)(F)C(F)F [XI-A-088] | XI-A-088: log P (HCOOH): 2.63 |
| COc1cc(-c2c(C(F)(F)F)nn(-c3ccc(C(=O)NCC(F)(F)C(F)F)c(C)c3)c2N)cc(Cl)c1OC [I-A-Q2-292] | I-A-Q2-292: log P (HCOOH): 3.53 |
| CNC(=O)c1ccc(-n2nc(C(F)(F)F)c(-c3ccc(Cl)c(Cl)c3)c2N)cc1 [I-A-Q2-194] | I-A-Q2-194: log P (HCOOH): 3.37 |
| N#Cc1cc(-n2nc(C(F)(F)F)cc2N)ccc1-n1cncn1 [XI-A-079] | XI-A-079: log P (HCOOH): 2.80 |
| COc1cc(OC)nc(CNC(=O)c2ccc(-n3nc(C(F)(F)F)c(-c4cc(Cl)cc(Cl)c4)c3N)cc2C)n1 [I-A-Q2-255] | I-A-Q2-255: log P (HCOOH): 4.40 |
| Cc1cc(-n2nc(C(F)(F)F)c(-c3cc(Cl)cc(Cl)c3)c2N)ccc1C(=O)NCc1ccncc1 [I-A-Q2-212] | I-A-Q2-212: log P (HCOOH): 2.27 |
| Nc1c(-c2cccc(F)c2)c(C(F)(F)F)nn1-c1ccc(C(=O)NCC(F)(F)F)cc1 [I-A-Q2-183] | I-A-Q2-183: log P (HCOOH): 3.11 |
| Cc1cc(-n2nc(C(F)(F)F)c(-c3cc(Cl)cc(Cl)c3)c2N)ccc1C(=O)NC(C)c1ccccn1 (stereo not drawn) [I-A-Q2-015] | I-A-Q2-015: log P (HCOOH): 3.70 |
| Cc1cc(-n2nc(C(F)(F)F)c(-c3cc(Cl)cc(Cl)c3)c2N)ccc1C(=O)NC(c1ccc(C(F)(F)F)cc1)C(F)(F)F (stereo not drawn) [I-A-Q2-242] | I-A-Q2-242: log P (HCOOH): 5.29 |
| Cc1cc(-n2nc(C(F)(F)Oc3ccc(Cl)cc3Cl)c(-c3cc(Cl)cc(C(F)(F)F)c3)c2N)ccc1C(=O)NCC(F)(F)C(F)F [I-A-Q2-295] | I-A-Q2-295: log P (HCOOH): 5.27 |
| Cc1nc(CNC(=O)c2ccc(-n3nc(C(F)(F)F)c(-c4cc(Cl)cc(Cl)c4)c3N)cc2C)cs1 [I-A-Q2-041] | I-A-Q2-041: log P (HCOOH): 3.94 |
| Cc1cc(-n2nc(C)c(-c3cc(Cl)ccc3Cl)c2N)ccc1C(=O)NCC(F)(F)C(F)F [I-A-Q2-335] | I-A-Q2-335: log P (HCOOH): 3.04 |

Same assay, conditions: HCOOH; Table 4, compounds of formula I-A-Q4

| SMILES | log P (HCOOH) |
| --- | --- |
| Nc1c(-c2cc(Cl)cc(C(F)(F)F)c2)c(C(F)(F)Cl)nn1-c1ccc(Cl)cn1 [I-A-Q4-059] | I-A-Q4-059: log P (HCOOH): 5.81 |
| Nc1c(-c2cccc(Cl)c2)c(C(F)(F)F)nn1-c1ccc(C(=O)O)cc1 [I-A-Q4-096] | I-A-Q4-096: log P (HCOOH): 3.20 |
| Nc1c(-c2cc(F)c(F)c(F)c2)c(C(F)(F)F)nn1-c1ccc(C(=O)O)cc1 [I-A-Q4-099] | I-A-Q4-099: log P (HCOOH): 3.32 |
| Cc1nn(-c2ccc(Cl)cn2)c(N)c1-c1c(Cl)cccc1Cl [I-A-Q4-029] | I-A-Q4-029: log P (HCOOH): 4.05 |
| CC(C)Cc1nn(-c2ccc(Cl)cn2)c(N)c1-c1ccc(Cl)cc1 [I-A-Q4-062] | I-A-Q4-062: log P (HCOOH): 5.97 |
| Cc1ccc(-c2c(C(F)(F)F)nn(-c3ccc(Cl)cn3)c2N)cc1 [I-A-Q4-055] | I-A-Q4-055: log P (HCOOH): 4.83 |
| Nc1c(-c2cccc(Br)c2)c(C(F)(F)F)nn1-c1ccc(Cl)cn1 [I-A-Q4-052] | I-A-Q4-052: log P (HCOOH): 5.02 |
| Nc1c(-c2cc(Cl)cc(Cl)c2)c(C(F)(F)F)nn1-c1ccc(S(=O)(=O)NC2CC2)c(Br)c1 [I-A-Q4-111] | I-A-Q4-111: log P (HCOOH): 4.77 |
| Nc1c(-c2ccc(Cl)cc2)c(C(F)(F)F)nn1-c1ccc(Cl)cn1 [I-A-Q4-041] | I-A-Q4-041: log P (HCOOH): 4.95 |

Same assay, conditions: HCOOH; Table 6, compounds of formula I-B-Q2

| SMILES | log P (HCOOH) |
| --- | --- |
| O=C(NCC(F)(F)C(F)F)c1ccc(-n2cc(-c3cc(Cl)cc(Cl)c3)c(C(F)(F)F)n2)c2ccccc12 [I-B-Q2-021] | I-B-Q2-021: log P (HCOOH): 4.58 |

Same assay, conditions: HPLC, reversed-phase C18, mobile phase with formic acid

| SMILES | log P (HCOOH) |
| --- | --- |
| N#Cc1cc(-n2nc(-c3ccccc3)c(-c3ccc(Cl)cc3)c2N)ccc1-n1cncn1 [I-A-Q1-063] | I-A-Q1-063: log P (HCOOH): 3.53 |
| N#Cc1cc(-n2nc(C3CC3)c(-c3ccc(Cl)cc3)c2N)ccc1-n1cncn1 [I-A-Q1-064] | I-A-Q1-064: log P (HCOOH): 3.31 |
| Cc1nn(-c2ccc(-n3cncn3)c(C#N)c2)c(N)c1-c1ccc(F)cc1Cl [I-A-Q1-052] | I-A-Q1-052: log P (HCOOH): 2.43 |
| Cc1nn(-c2ccc(-n3cncn3)c(C#N)c2)c(N)c1-c1ccc(Cl)cc1Cl [I-A-Q1-056] | I-A-Q1-056: log P (HCOOH): 2.80 |

Same assay, conditions: HPLC, reversed-phase C18, mobile phase with formic acid; read-out: log P (HCOOH)

| SMILES | chromatographic logP |
| --- | --- |
| Cc1cc(-n2nc(C(F)(F)F)c(-c3cc(Cl)cc(Cl)c3)c2[S+](C)[O-])ccc1C(=O)NCc1ccccn1 (stereo not drawn) [I-A-Q2-063, 4-[4-(3,5-Dichlorophenyl)-5-methanesulphinyl-3-trifluoromethylpyrazol-1-yl]-2-methyl-N-pyridin-2-ylmethylbenzamide] | 3.11 |
| Cc1cc(-n2nc(C(F)(F)F)c(-c3ccc(Cl)c(Cl)c3)c2N)ccc1C(=O)O [I-A-Q4-012, 4-[5-Amino-4-(3,4-dichlorophenyl)-3-(trifluoromethyl)-1H-pyrazol-1-yl]-2-methylbenzoic acid] | 3.92 |
